Data taken from PubChem BioAssay AID743368.
pIC50: −log10 of the molar value.

Target: Acetylcholine receptor subunit alpha (Mus musculus) (UniProt P04756)
Assay: blockade of mouse muscle nicotinic receptor currents – cell-based, Mus musculus, Xenopus oocytes (AID 743368)
Settings: two-electrode voltage clamp, ACh-evoked current

Acetylcholine receptor subunit alpha (Mus musculus), sequence (P04756 whole entry, looked up): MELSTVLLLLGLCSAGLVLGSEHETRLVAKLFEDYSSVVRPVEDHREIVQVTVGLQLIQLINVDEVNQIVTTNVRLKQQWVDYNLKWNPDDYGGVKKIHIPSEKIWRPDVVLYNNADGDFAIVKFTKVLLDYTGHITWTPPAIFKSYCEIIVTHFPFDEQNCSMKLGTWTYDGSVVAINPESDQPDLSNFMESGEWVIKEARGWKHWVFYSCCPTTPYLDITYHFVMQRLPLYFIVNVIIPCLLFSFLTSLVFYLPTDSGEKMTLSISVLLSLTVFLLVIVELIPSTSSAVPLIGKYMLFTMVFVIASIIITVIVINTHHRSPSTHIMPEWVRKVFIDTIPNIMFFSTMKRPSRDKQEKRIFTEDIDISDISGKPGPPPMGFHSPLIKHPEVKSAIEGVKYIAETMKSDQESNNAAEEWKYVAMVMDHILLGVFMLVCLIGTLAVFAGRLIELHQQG

Structure (SMILES)	pIC50
COn1c(Br)c2c3c(cccc31)[C@H]1C[C@@H](C)CN(C)[C@@H]1C2	5.43
COc1cc(CCN)c2c(c1OC)SSSSS2	5.06
CC/C=C/[C@@H]1CC[C@]2(C[C@H]3CC[C@H]4[C@@H](C(=O)OC(CC)CCCCCCCCCCCCC[C@@H]5O[C@](O)(CCN)[C@H](O)N(CCCN)C5=O)[C@@]5(CCC[C@H](C)O5)NC(=[N+]34)N2)O1 (stereo partly drawn)	5.39
